The values below come from patent publication US20040198810A1 (H. Lundbeck A/S, priority 2001, published 2004).

What all share (type): in vivo
Test [1] in a line: fixed dose studies (MADRS rating scale and Clinical Global Impression). The note with it: escitalopram in a dose of 10 mg.
Test [2] relates to Chronic Mild Stress model. The experiment in a line: Chronic Mild Stress model. Particulars: animal models. The source says: (§1) This has i.a. been found in the Chronic Mild Stress model (Willner P., Psychopharmachology 1997, 134, 319-329).
The test system of test [3] is primary care patients with major depression disorder. The experiment in a line: 8-week, double-blind, randomised, placebo-controlled, flexible-dose clinical study. Particulars: Week 1 (p=0.023) to Week 4 (p=0.002), observed cases.
Excerpt: as §1
A total of 471 patients were randomised into the study. The all-patient-treated set comprised 469 patients and the full-analysis set comprised 468 patients.
There was an approximately 3 to 1 ratio of women to men in each treatment group, and almost all patients were Caucasian. The mean age was 43 years (SD 11). At baseline, the mean MADRS total score was approximately 29 for the treatment group, which signifies moderate to severely ill patients.

Regarding `CN(C)CCC[C@@]1(c2ccc(F)cc2)OCc2cc(C#N)ccc21` [escitalopram, (S)-1-[3-(dimethylamino)propyl]-1-(4-fluorophenyl)-1,3-dihydro-5-isobenzofurancarbonitrile], in test [1], the “effect as determined by the MADRS rating scale and Clinical Global Impression (severity as well as improvement)” value is reported as “at least same effect as citalopram in a dose of 40 mg”. For the same molecule, in test [2], the speed of response entry is recorded as “faster response than citalopram-racemate”. Moreover, the “therapeutic effect versus placebo, adjusted mean change in MADRS total score” value in test [3] is reported as “significantly superior therapeutic effect”.
